{
  "source": "patent US20110305637A1",
  "about": "“RADIOLABELLED PDE10 LIGANDS” (Janssen Pharmaceutica N.V., priority 2009, published 2011)",
  "assay": "Biodistribution study in male Wistar rats",
  "format": "in vivo, rat",
  "experimental": "(§1) The biodistribution study of [^18F]B-1 was carried out in male Wistar rats (body weight 250-350 g) at 2 min, 30 min and 60 min post injection (p.i.) (n=3/time point). Rats were injected with about 1.1 MBq of the tracer via tail vein under anesthesia (2.5% Isoflurane in O2 at 1 L/min flow rate) and sacrificed by decapitation at above specified time points. Blood and major organs were collected in tared tubes and weighed. The radioactivity in blood, organs and other body parts was measured using an automated gamma counter The distribution of radioactivity in different parts of the body at different time points p.i. of the tracer was calculated and expressed as percentage of injected dose (% ID), and as percentage of injected dose per gram tissue (% ID/g) for the selected organs. % ID is calculated as cpm in organ/total cpm recovered. For calculation of total radioactivity in blood, blood mass was assumed to be 7% of the body mass.\nas §1, with “[^18F]B-2” for “[^18F]B-1”, “270-340” for “250-350”",
  "key": {"[1]": {"conditions": "2 min p.i., % ID/g values normalized for the body weight"}, "[2]": {"conditions": "2 min p.i., normalized for body weight"}, "[3]": {"conditions": "30 min p.i., % ID/g values normalized for the body weight"}},
  "note": "Values joined by “and” are separate entries in the source; they are usually repeats but may differ in a detail not shown here. Identical values can stand only once.",
  "data": [
    {"smiles": "[18F]CCCn1cc(-c2ccncc2)c(-c2ccc(OCc3ccc4ccccc4n3)cc2)n1", "note": "[[^18F]B-1]", "values": [
      {"measurement": "% ID in Carcass", "setting": "2 min p.i.", "result": "27.70 ± 0.7", "unit": "% ID"},
      {"measurement": "% ID in Cerebellum", "setting": "2 min p.i.", "result": "0.096 ± 0.0", "unit": "% ID"},
      {"measurement": "% ID in Cerebrum total", "setting": "2 min p.i.", "result": "0.4 % ID and 0.407 ± 0.1 % ID"},
      {"measurement": "% ID in Cortex", "setting": "2 min p.i.", "result": "0.072 ± 0.01", "unit": "% ID"},
      {"measurement": "% ID in Heart", "setting": "2 min p.i.", "result": "0.87 ± 0.1", "unit": "% ID"},
      {"measurement": "% ID in Hippocampus", "setting": "2 min p.i.", "result": "0.013 ± 0.00", "unit": "% ID"},
      {"measurement": "% ID in Intestines", "setting": "2 min p.i.", "result": "8.89 ± 0.5", "unit": "% ID"},
      {"measurement": "% ID in Kidneys", "setting": "2 min p.i.", "result": "5.31 ± 0.7", "unit": "% ID"},
      {"measurement": "% ID in Liver", "setting": "2 min p.i.", "result": "48.20 ± 1.8", "unit": "% ID"},
      {"measurement": "% ID in Lungs", "setting": "2 min p.i.", "result": "2.79 ± 0.6", "unit": "% ID"},
      {"measurement": "% ID in Rest of cerebrum", "setting": "2 min p.i.", "result": "0.307 ± 0.05", "unit": "% ID"},
      {"measurement": "% ID in Spleen + Pancreas", "setting": "2 min p.i.", "result": "1.63 ± 0.1", "unit": "% ID"},
      {"measurement": "% ID in Stomach", "setting": "2 min p.i.", "result": "1.74 ± 0.2", "unit": "% ID"},
      {"measurement": "% ID in Striatum", "setting": "2 min p.i.", "result": "0.015 % ID and 0.015 ± 0.00 % ID"},
      {"measurement": "% ID in Urine", "setting": "2 min p.i.", "result": "0.09 ± 0.0", "unit": "% ID"},
      {"measurement": "% ID/g in Blood", "setting": "2 min p.i.", "result": "0.19 ± 0.02", "unit": "% ID/g"},
      {"measurement": "% ID/g in Cerebellum", "setting": "2 min p.i.", "result": "0.39 ± 0.06", "unit": "% ID/g"},
      {"measurement": "% ID/g in Cerebrum + Cerebellum", "setting": "2 min p.i.", "result": "0.33 ± 0.05", "unit": "% ID/g"},
      {"measurement": "% ID/g in Cerebrum total", "setting": "2 min p.i.", "result": "0.31 ± 0.05", "unit": "% ID/g"},
      {"measurement": "% ID/g in Cortex", "setting": "2 min p.i.", "result": "0.40 ± 0.11", "unit": "% ID/g"},
      {"measurement": "% ID/g in Heart", "setting": "2 min p.i.", "result": "1.06 ± 0.20", "unit": "% ID/g"},
      {"measurement": "% ID/g in Liver", "setting": "2 min p.i.", "result": "3.79 ± 0.19", "unit": "% ID/g"},
      {"measurement": "% ID/g in Lungs", "setting": "2 min p.i.", "result": "2.36 ± 0.75", "unit": "% ID/g"},
      {"measurement": "% ID/g in Rest of cerebrum", "setting": "2 min p.i.", "result": "0.30 ± 0.04", "unit": "% ID/g"},
      {"measurement": "% ID/g in Spleen + Pancreas", "setting": "2 min p.i.", "result": "1.18 ± 0.17", "unit": "% ID/g"},
      {"measurement": "striatum/blood ratio", "setting": "[1]", "result": 2.1},
      {"measurement": "striatum/cortex ratio", "setting": "[1]", "result": 1.0},
      {"measurement": "striatum/hippocampus ratio", "setting": "[1]", "result": 2.0},
      {"measurement": "total brain uptake of the tracer", "setting": "2 min p.i., % of injected dose", "result": "~0.5", "unit": "%"},
      {"measurement": "% ID/g × kg in Blood", "setting": "[2]", "result": "0.05 ± 0.00", "unit": "% ID/g × kg"},
      {"measurement": "% ID/g × kg in Cerebellum", "setting": "[2]", "result": "0.100 ± 0.02", "unit": "% ID/g × kg"},
      {"measurement": "% ID/g × kg in Cerebrum + Cerebellum", "setting": "[2]", "result": "0.08 ± 0.01", "unit": "% ID/g × kg"},
      {"measurement": "% ID/g × kg in Cerebrum total", "setting": "[2]", "result": "0.080 ± 0.01", "unit": "% ID/g × kg"},
      {"measurement": "% ID/g × kg in Cortex", "setting": "[2]", "result": "0.103 ± 0.03", "unit": "% ID/g × kg"},
      {"measurement": "% ID/g × kg in Heart", "setting": "[2]", "result": "0.27 ± 0.05", "unit": "% ID/g × kg"},
      {"measurement": "% ID/g × kg in Hippocampus", "setting": "[2]", "result": "0.052 ± 0.01", "unit": "% ID/g × kg"},
      {"measurement": "% ID/g × kg in Kidneys", "setting": "[2]", "result": "0.57 ± 0.07", "unit": "% ID/g × kg"},
      {"measurement": "% ID/g × kg in Liver", "setting": "[2]", "result": "0.97 ± 0.05", "unit": "% ID/g × kg"},
      {"measurement": "% ID/g × kg in Lungs", "setting": "[2]", "result": "0.60 ± 0.19", "unit": "% ID/g × kg"},
      {"measurement": "% ID/g × kg in Rest of cerebrum", "setting": "[2]", "result": "0.077 ± 0.01", "unit": "% ID/g × kg"},
      {"measurement": "% ID/g × kg in Spleen + Pancreas", "setting": "[2]", "result": "0.30 ± 0.04", "unit": "% ID/g × kg"},
      {"measurement": "% ID/g × kg in Striatum", "setting": "[2]", "result": "0.102 ± 0.01", "unit": "% ID/g × kg"},
      {"measurement": "% ID in Blood", "setting": "30 min p.i.", "result": "2.12 ± 0.1", "unit": "% ID"},
      {"measurement": "% ID in Carcass", "setting": "30 min p.i.", "result": "25.24 ± 1.7", "unit": "% ID"},
      {"measurement": "% ID in Cerebellum", "setting": "30 min p.i.", "result": "0.021 ± 0.0", "unit": "% ID"},
      {"measurement": "% ID in Cerebrum total", "setting": "30 min p.i.", "result": "0.158 ± 0.01", "unit": "% ID"},
      {"measurement": "% ID in Cortex", "setting": "30 min p.i.", "result": "0.018 ± 0.00", "unit": "% ID"},
      {"measurement": "% ID in Heart", "setting": "30 min p.i.", "result": "0.22 ± 0.0", "unit": "% ID"},
      {"measurement": "% ID in Hippocampus", "setting": "30 min p.i.", "result": "0.004 ± 0.00", "unit": "% ID"},
      {"measurement": "% ID in Intestines", "setting": "30 min p.i.", "result": "14.44 ± 3.0", "unit": "% ID"},
      {"measurement": "% ID in Kidneys", "setting": "30 min p.i.", "result": "1.55 ± 0.1", "unit": "% ID"},
      {"measurement": "% ID in Liver", "setting": "30 min p.i.", "result": "49.64 ± 5.3", "unit": "% ID"},
      {"measurement": "% ID in Lungs", "setting": "30 min p.i.", "result": "1.81 ± 0.0", "unit": "% ID"},
      {"measurement": "% ID in Rest of cerebrum", "setting": "30 min p.i.", "result": "0.122 ± 0.00", "unit": "% ID"},
      {"measurement": "% ID in Spleen + Pancreas", "setting": "30 min p.i.", "result": "0.42 ± 0.1", "unit": "% ID"},
      {"measurement": "% ID in Stomach", "setting": "30 min p.i.", "result": "4.60 ± 0.6", "unit": "% ID"},
      {"measurement": "% ID in Striatum", "setting": "30 min p.i.", "result": "0.014 ± 0.00", "unit": "% ID"},
      {"measurement": "% ID in Urine", "setting": "30 min p.i.", "result": "0.61 ± 0.3", "unit": "% ID"},
      {"measurement": "% ID/g in Blood", "setting": "30 min p.i.", "result": "0.12 ± 0.01", "unit": "% ID/g"},
      {"measurement": "% ID/g in Cerebellum", "setting": "30 min p.i.", "result": "0.09 ± 0.01", "unit": "% ID/g"},
      {"measurement": "% ID/g in Cerebrum + Cerebellum", "setting": "30 min p.i.", "result": "0.12 ± 0.01", "unit": "% ID/g"},
      {"measurement": "% ID/g in Cerebrum total", "setting": "30 min p.i.", "result": "0.12 ± 0.01", "unit": "% ID/g"},
      {"measurement": "% ID/g in Cortex", "setting": "30 min p.i.", "result": "0.11 ± 0.02", "unit": "% ID/g"},
      {"measurement": "% ID/g in Heart", "setting": "30 min p.i.", "result": "0.26 ± 0.02", "unit": "% ID/g"},
      {"measurement": "% ID/g in Hippocampus", "setting": "30 min p.i.", "result": "0.08 ± 0.01", "unit": "% ID/g"},
      {"measurement": "% ID/g in Kidneys", "setting": "30 min p.i.", "result": "0.64 ± 0.04", "unit": "% ID/g"},
      {"measurement": "% ID/g in Liver", "setting": "30 min p.i.", "result": "4.00 ± 0.37", "unit": "% ID/g"},
      {"measurement": "% ID/g in Lungs", "setting": "30 min p.i.", "result": "1.38 ± 0.11", "unit": "% ID/g"},
      {"measurement": "% ID/g in Rest of cerebrum", "setting": "30 min p.i.", "result": "0.12 ± 0.01", "unit": "% ID/g"},
      {"measurement": "% ID/g in Spleen + Pancreas", "setting": "30 min p.i.", "result": "0.27 ± 0.01", "unit": "% ID/g"},
      {"measurement": "% ID/g in Striatum", "setting": "30 min p.i.", "result": "0.41 ± 0.00", "unit": "% ID/g"},
      {"measurement": "striatum/blood ratio", "setting": "[3]", "result": 3.5},
      {"measurement": "striatum/cerebellum ratio", "setting": "[3]", "result": 4.6},
      {"measurement": "striatum/cortex ratio", "setting": "[3]", "result": 3.9},
      {"measurement": "striatum/hippocampus ratio", "setting": "[3]", "result": 5.1}
    ]}
  ]
}
